Source: the kinase profiling compilation of Christmann-Franck et al. (2016)

What was measured:
Assay in all cases: radiometric filter-binding kinase assay, Kinase HotSpot
Details in all cases: compound 0.5 µM; ATP 10 µM
ACVRL1 (human) = ACVRL1 (human) (UniProt P37023)
AKT1 (human) = AKT1 (human) (UniProt P31749)
BLK (human) = BLK (human) (UniProt P51451)
BRSK1 (human) = BRSK1 (human) (UniProt Q8TDC3)
BRSK2 (human) = BRSK2 (human) (UniProt Q8IWQ3)
CAMKK2 (human) = CAMKK2 (human) (UniProt Q96RR4)
CDC42BPA (human) = CDC42BPA (human) (UniProt Q5VT25)
CDK2 CCNA2 (human) = CDK2 CCNA2 (human) (UniProt P24941+P20248)
CDK2 CCNA2 (human), sequence (P20248 whole entry, looked up, other chains not shown): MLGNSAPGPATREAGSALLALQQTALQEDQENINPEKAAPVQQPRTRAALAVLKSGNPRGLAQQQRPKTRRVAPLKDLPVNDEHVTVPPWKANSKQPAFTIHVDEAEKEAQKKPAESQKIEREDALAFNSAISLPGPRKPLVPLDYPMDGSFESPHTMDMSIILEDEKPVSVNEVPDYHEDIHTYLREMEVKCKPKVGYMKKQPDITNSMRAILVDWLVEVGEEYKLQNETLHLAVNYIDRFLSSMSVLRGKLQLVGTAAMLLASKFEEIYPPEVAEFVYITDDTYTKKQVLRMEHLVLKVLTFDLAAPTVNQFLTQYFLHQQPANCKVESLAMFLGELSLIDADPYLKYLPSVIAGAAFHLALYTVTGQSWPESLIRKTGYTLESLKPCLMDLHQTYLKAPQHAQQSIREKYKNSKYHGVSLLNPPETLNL

CDK5 CDK5R1 p35 (human) = CDK5 CDK5R1 p35 (human) (UniProt Q00535+Q15078)
CLK2 (human) = CLK2 (human) (UniProt P49760)
CLK2 (human), sequence (P49760 whole entry, looked up): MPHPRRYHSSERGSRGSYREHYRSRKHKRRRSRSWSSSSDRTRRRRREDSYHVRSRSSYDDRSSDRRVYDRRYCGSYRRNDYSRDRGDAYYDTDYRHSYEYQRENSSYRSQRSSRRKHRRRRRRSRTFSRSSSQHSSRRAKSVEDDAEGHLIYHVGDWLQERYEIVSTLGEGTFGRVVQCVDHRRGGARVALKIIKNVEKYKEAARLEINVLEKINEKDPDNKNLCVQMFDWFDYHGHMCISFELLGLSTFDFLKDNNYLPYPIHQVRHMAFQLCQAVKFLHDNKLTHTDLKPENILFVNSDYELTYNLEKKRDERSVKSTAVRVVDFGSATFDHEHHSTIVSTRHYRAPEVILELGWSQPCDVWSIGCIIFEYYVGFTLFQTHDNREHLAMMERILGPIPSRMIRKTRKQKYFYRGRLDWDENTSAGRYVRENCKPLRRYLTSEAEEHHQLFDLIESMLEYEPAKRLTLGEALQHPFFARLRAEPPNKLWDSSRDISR

CSF1R (human) = CSF1R (human) (UniProt P07333)
CSF1R (human), sequence (P07333 whole entry, looked up): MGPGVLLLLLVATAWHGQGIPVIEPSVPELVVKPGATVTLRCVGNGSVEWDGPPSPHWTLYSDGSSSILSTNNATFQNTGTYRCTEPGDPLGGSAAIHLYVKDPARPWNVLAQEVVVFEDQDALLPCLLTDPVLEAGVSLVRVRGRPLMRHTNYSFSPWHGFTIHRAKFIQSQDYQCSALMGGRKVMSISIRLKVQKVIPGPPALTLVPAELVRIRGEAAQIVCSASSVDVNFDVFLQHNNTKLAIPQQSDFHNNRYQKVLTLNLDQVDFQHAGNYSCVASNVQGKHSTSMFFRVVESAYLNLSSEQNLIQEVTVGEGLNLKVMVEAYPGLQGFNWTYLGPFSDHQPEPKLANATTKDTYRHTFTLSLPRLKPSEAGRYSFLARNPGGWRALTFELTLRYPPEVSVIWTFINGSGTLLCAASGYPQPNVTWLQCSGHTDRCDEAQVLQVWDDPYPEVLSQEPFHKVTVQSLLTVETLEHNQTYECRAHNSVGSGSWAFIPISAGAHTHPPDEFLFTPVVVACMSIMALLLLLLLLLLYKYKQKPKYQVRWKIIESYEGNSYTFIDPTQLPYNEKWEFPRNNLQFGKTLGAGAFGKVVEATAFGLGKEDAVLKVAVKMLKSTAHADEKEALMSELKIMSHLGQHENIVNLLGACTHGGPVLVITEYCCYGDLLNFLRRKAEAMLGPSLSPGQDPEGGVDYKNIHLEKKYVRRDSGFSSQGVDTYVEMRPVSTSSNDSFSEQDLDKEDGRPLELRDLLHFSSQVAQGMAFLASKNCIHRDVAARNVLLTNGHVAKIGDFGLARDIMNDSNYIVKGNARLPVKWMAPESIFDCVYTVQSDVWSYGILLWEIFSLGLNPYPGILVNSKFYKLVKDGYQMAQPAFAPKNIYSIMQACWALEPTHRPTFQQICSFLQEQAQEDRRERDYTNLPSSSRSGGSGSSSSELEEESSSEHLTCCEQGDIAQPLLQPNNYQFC

DCLK2 (human) = DCLK2 (human) (UniProt Q8N568)
DSTYK (human) = DSTYK (human) (UniProt Q6XUX3)
DSTYK (human), sequence (Q6XUX3 whole entry, looked up): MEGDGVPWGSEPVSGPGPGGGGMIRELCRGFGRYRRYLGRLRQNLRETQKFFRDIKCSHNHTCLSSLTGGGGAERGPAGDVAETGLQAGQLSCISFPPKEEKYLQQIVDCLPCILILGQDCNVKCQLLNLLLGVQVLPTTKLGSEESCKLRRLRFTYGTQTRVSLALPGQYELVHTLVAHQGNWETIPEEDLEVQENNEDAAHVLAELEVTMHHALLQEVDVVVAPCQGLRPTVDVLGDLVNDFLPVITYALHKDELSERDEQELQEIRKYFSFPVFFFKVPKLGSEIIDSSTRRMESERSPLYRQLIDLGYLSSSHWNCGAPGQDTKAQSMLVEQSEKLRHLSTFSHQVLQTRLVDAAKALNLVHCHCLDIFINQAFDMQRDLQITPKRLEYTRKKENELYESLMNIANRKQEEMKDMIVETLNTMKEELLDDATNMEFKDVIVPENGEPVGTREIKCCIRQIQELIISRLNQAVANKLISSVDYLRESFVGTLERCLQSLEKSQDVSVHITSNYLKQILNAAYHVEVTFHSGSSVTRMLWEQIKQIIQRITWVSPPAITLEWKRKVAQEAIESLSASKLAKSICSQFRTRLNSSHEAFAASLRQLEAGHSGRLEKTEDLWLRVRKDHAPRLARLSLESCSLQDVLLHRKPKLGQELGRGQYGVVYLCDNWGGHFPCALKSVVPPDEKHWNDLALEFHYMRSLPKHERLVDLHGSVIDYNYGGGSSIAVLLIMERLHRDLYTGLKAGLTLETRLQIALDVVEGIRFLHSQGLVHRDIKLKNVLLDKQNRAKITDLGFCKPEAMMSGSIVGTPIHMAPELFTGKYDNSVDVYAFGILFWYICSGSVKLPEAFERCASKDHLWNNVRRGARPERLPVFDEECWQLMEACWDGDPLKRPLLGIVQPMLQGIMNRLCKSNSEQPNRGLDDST

EPHA1 (human) = EPHA1 (human) (UniProt P21709)
EPHB2 (human) = EPHB2 (human) (UniProt P29323)
EPHB3 (human) = EPHB3 (human) (UniProt P54753)
FGFR3 (human) = FGFR3 (human) (UniProt P22607)
FRK (human) = FRK (human) (UniProt P42685)
GSK3A (human) = GSK3A (human) (UniProt P49840)
INSRR (human) = INSRR (human) (UniProt P14616)
LRRK2 (human) = LRRK2 (human) (UniProt Q5S007)
LTK (human) = LTK (human) (UniProt P29376)
MAP2K1 (human) = MAP2K1 (human) (UniProt Q02750)
MAP2K2 (human) = MAP2K2 (human) (UniProt P36507)
MAP3K10 (human) = MAP3K10 (human) (UniProt Q02779)
MAP4K2 (human) = MAP4K2 (human) (UniProt Q12851)
MAPK13 (human) = MAPK13 (human) (UniProt O15264)
MAPKAPK3 (human) = MAPKAPK3 (human) (UniProt Q16644)
MARK3 (human) = MARK3 (human) (UniProt P27448)
MYLK2 (human) = MYLK2 (human) (UniProt Q9H1R3)
NEK9 (human) = NEK9 (human) (UniProt Q8TD19)
PAK6 (human) = PAK6 (human) (UniProt Q9NQU5)
PAK6 (human), sequence (Q9NQU5 whole entry, looked up): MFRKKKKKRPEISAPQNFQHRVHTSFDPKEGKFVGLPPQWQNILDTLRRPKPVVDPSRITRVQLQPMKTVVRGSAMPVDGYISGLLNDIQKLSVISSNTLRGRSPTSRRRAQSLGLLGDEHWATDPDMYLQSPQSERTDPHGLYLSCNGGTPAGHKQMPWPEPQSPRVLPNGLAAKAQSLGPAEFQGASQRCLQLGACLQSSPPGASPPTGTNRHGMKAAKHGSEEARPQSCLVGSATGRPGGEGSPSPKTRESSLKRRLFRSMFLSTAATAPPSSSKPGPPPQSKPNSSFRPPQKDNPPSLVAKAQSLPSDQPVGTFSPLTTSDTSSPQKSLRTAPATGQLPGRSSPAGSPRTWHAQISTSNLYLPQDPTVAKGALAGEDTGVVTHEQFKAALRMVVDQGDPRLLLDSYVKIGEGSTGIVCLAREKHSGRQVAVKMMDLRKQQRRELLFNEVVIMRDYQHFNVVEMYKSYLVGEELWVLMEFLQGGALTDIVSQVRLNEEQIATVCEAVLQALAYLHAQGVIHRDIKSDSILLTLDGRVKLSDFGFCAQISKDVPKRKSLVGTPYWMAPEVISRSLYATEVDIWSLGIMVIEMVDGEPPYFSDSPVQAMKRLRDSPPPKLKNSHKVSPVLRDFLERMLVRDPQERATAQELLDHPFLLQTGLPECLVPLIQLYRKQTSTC

PASK (human) = PASK (human) (UniProt Q96RG2)
PASK (human), sequence (Q96RG2 whole entry, looked up): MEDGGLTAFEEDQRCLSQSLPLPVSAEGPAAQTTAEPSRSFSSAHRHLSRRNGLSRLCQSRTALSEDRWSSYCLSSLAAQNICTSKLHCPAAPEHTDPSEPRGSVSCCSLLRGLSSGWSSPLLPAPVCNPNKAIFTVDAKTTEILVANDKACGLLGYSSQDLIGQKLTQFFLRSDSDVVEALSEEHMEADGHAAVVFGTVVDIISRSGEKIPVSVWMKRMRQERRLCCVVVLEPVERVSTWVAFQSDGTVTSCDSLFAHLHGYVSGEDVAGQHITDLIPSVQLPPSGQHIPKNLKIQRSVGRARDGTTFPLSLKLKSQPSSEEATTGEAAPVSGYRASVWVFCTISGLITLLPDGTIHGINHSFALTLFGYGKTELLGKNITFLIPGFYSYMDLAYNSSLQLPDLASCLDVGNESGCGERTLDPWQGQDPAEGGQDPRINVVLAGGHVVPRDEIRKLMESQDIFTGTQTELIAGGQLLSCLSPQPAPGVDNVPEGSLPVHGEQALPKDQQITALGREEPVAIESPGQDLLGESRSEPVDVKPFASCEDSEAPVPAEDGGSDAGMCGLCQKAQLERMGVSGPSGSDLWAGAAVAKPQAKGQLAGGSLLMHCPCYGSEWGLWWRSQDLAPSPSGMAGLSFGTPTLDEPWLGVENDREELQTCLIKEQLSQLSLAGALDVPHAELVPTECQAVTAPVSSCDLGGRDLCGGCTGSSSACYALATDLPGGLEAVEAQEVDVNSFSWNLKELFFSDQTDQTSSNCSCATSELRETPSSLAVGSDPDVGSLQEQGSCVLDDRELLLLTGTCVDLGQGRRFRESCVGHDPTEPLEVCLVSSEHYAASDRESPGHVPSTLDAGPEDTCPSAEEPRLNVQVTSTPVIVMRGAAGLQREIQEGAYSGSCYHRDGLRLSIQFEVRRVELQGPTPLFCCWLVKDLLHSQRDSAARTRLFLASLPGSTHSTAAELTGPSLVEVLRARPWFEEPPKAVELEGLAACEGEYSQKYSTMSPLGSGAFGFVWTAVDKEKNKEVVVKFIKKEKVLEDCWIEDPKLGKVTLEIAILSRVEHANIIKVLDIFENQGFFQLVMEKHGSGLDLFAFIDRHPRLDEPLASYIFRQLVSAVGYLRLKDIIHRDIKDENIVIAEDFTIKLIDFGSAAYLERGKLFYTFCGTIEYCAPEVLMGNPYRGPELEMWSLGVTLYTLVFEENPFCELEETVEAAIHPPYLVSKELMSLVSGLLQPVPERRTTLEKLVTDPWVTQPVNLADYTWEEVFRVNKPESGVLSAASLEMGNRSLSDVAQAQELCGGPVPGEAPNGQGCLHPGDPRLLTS

PHKG1 (human) = PHKG1 (human) (UniProt Q16816)
PIM2 (human) = PIM2 (human) (UniProt Q9P1W9)
PRKACA (human) = PRKACA (human) (UniProt P17612)
RPS6KA1 KD1 KD2 (human) = RPS6KA1 KD1 KD2 (human) (UniProt Q15418)
RPS6KA3 KD1 KD2 (human) = RPS6KA3 KD1 KD2 (human) (UniProt P51812)
STK16 (human) = STK16 (human) (UniProt O75716)
ULK1 (human) = ULK1 (human) (UniProt O75385)
ULK2 (human) = ULK2 (human) (UniProt Q8IYT8)

Which residual activity (ACVRL1 (human)) does the source give for CC[n+]1c(/C=C/N(C)c2ccccc2)n(-c2ccccc2)c2ccc(-c3nc4ccccc4s3)cc21 here?
The residual activity was 110%.

What about the residual activity (AKT1 (human)) of the same compound?
Its residual activity is 104%.

What about the residual activity (BLK (human)) of the same compound?
Its residual activity is 99.1%.

And the residual activity (BRSK1 (human))?
Its residual activity is 101%.

And the residual activity (BRSK2 (human))?
Its residual activity is 95.7%.

And the residual activity (CAMKK2 (human))?
The residual activity was 115%.

And the residual activity (CDC42BPA (human))?
The residual activity was 102%.

And the residual activity (CDK2 CCNA2 (human))?
The residual activity was 100%.

What about the residual activity (CDK5 CDK5R1 p35 (human)) of the same compound?
The residual activity was 97.6%.

What about the residual activity (CLK2 (human)) of the same compound?
The residual activity was 98.4%.

And the residual activity (CSF1R (human))?
The residual activity was 108%.

What about the residual activity (DCLK2 (human)) of the same compound?
Its residual activity is 102%.

And the residual activity (DSTYK (human))?
Its residual activity is 103%.

What about the residual activity (EPHA1 (human)) of the same compound?
The residual activity was 77.1%.

What about the residual activity (EPHB2 (human)) of the same compound?
The residual activity was 99.1%.

What about the residual activity (EPHB3 (human)) of the same compound?
The residual activity was 102%.

And the residual activity (FGFR3 (human))?
The residual activity was 88.4%.

What about the residual activity (FRK (human)) of the same compound?
The residual activity was 97.1%.

What about the residual activity (GSK3A (human)) of the same compound?
The residual activity was 103%.

What about the residual activity (INSRR (human)) of the same compound?
The residual activity was 101%.

And the residual activity (LRRK2 (human))?
Its residual activity is 95.5%.

And the residual activity (LTK (human))?
The residual activity was 90.7%.

And the residual activity (MAP2K1 (human))?
The residual activity was 93.5%.

And the residual activity (MAP2K2 (human))?
The residual activity was 88.5%.

What about the residual activity (MAP3K10 (human)) of the same compound?
The residual activity was 103%.

And the residual activity (MAP4K2 (human))?
Its residual activity is 103%.

And the residual activity (MAPK13 (human))?
The residual activity was 102%.

What about the residual activity (MAPKAPK3 (human)) of the same compound?
The residual activity was 100%.

And the residual activity (MARK3 (human))?
Its residual activity is 98.8%.

What about the residual activity (MYLK2 (human)) of the same compound?
Its residual activity is 95.8%.

And the residual activity (NEK9 (human))?
The residual activity was 108%.

What about the residual activity (PAK6 (human)) of the same compound?
The residual activity was 95.5%.

What about the residual activity (PASK (human)) of the same compound?
The residual activity was 102%.

What about the residual activity (PHKG1 (human)) of the same compound?
The residual activity was 96.1%.

And the residual activity (PIM2 (human))?
The residual activity was 117%.

What about the residual activity (PRKACA (human)) of the same compound?
The residual activity was 103%.

And the residual activity (RPS6KA1 KD1 KD2 (human))?
The residual activity was 104%.

And the residual activity (RPS6KA3 KD1 KD2 (human))?
The residual activity was 109%.

What about the residual activity (STK16 (human)) of the same compound?
The residual activity was 98.4%.

What about the residual activity (ULK1 (human)) of the same compound?
The residual activity was 90.9%.

And the residual activity (ULK2 (human))?
The residual activity was 109%.

How did the residual activity (ACVRL1 (human)) turn out when O=c1cc(N2CCOCC2)oc2c1ccc1ccccc12 was run?
Its residual activity is 100%.

And the residual activity (AKT1 (human))?
Its residual activity is 101%.

What about the residual activity (BLK (human)) of the same compound?
Its residual activity is 104%.

And the residual activity (BRSK1 (human))?
Its residual activity is 100%.

What about the residual activity (BRSK2 (human)) of the same compound?
The residual activity was 92.6%.

What about the residual activity (CAMKK2 (human)) of the same compound?
The residual activity was 104%.

What about the residual activity (CDC42BPA (human)) of the same compound?
Its residual activity is 87.6%.

And the residual activity (CDK2 CCNA2 (human))?
Its residual activity is 100%.

What about the residual activity (CDK5 CDK5R1 p35 (human)) of the same compound?
Its residual activity is 96.7%.

And the residual activity (CLK2 (human))?
Its residual activity is 101%.

What about the residual activity (CSF1R (human)) of the same compound?
The residual activity was 103%.

What about the residual activity (DCLK2 (human)) of the same compound?
Its residual activity is 100%.

And the residual activity (DSTYK (human))?
The residual activity was 110%.

What about the residual activity (EPHA1 (human)) of the same compound?
The residual activity was 94.2%.

What about the residual activity (EPHB2 (human)) of the same compound?
Its residual activity is 85%.

And the residual activity (EPHB3 (human))?
Its residual activity is 90%.

And the residual activity (FGFR3 (human))?
Its residual activity is 98.2%.

And the residual activity (FRK (human))?
Its residual activity is 98.8%.

And the residual activity (GSK3A (human))?
The residual activity was 97.1%.

And the residual activity (INSRR (human))?
The residual activity was 97.4%.

And the residual activity (LRRK2 (human))?
Its residual activity is 96.9%.

And the residual activity (LTK (human))?
The residual activity was 101%.

What about the residual activity (MAP2K1 (human)) of the same compound?
The residual activity was 99.3%.

What about the residual activity (MAP2K2 (human)) of the same compound?
Its residual activity is 100%.

And the residual activity (MAP3K10 (human))?
Its residual activity is 102%.

And the residual activity (MAP4K2 (human))?
Its residual activity is 118%.

And the residual activity (MAPK13 (human))?
Its residual activity is 99.8%.

And the residual activity (MAPKAPK3 (human))?
Its residual activity is 105%.

What about the residual activity (MARK3 (human)) of the same compound?
The residual activity was 110%.

And the residual activity (MYLK2 (human))?
Its residual activity is 97.7%.

What about the residual activity (NEK9 (human)) of the same compound?
Its residual activity is 102%.

What about the residual activity (PAK6 (human)) of the same compound?
The residual activity was 92%.

What about the residual activity (PASK (human)) of the same compound?
The residual activity was 94.9%.

What about the residual activity (PHKG1 (human)) of the same compound?
Its residual activity is 98.2%.

And the residual activity (PIM2 (human))?
The residual activity was 78.8%.

And the residual activity (PRKACA (human))?
Its residual activity is 102%.

And the residual activity (RPS6KA1 KD1 KD2 (human))?
Its residual activity is 92%.

What about the residual activity (RPS6KA3 KD1 KD2 (human)) of the same compound?
Its residual activity is 103%.

What about the residual activity (STK16 (human)) of the same compound?
The residual activity was 99%.

What about the residual activity (ULK1 (human)) of the same compound?
The residual activity was 96.1%.

What about the residual activity (ULK2 (human)) of the same compound?
Its residual activity is 94.9%.

With c1ccc(-c2n[nH]c3c2oc2ccccc23)cc1 as the compound, how does the residual activity (ACVRL1 (human)) read?
The residual activity was 111%.

What about the residual activity (AKT1 (human)) of the same compound?
Its residual activity is 86.9%.

What about the residual activity (BLK (human)) of the same compound?
Its residual activity is 88.9%.

What about the residual activity (BRSK1 (human)) of the same compound?
Its residual activity is 92.4%.

What about the residual activity (BRSK2 (human)) of the same compound?
Its residual activity is 101%.

What about the residual activity (CAMKK2 (human)) of the same compound?
Its residual activity is 87.5%.

And the residual activity (CDC42BPA (human))?
Its residual activity is 87.4%.

And the residual activity (CDK2 CCNA2 (human))?
Its residual activity is 88.1%.

What about the residual activity (CDK5 CDK5R1 p35 (human)) of the same compound?
The residual activity was 85.8%.

And the residual activity (CLK2 (human))?
The residual activity was 94.8%.

And the residual activity (CSF1R (human))?
The residual activity was 78.1%.

And the residual activity (DCLK2 (human))?
The residual activity was 90.2%.

And the residual activity (DSTYK (human))?
The residual activity was 82.9%.

What about the residual activity (EPHA1 (human)) of the same compound?
Its residual activity is 78.6%.

And the residual activity (EPHB2 (human))?
The residual activity was 83.1%.

What about the residual activity (EPHB3 (human)) of the same compound?
The residual activity was 84.7%.

And the residual activity (FGFR3 (human))?
Its residual activity is 97.5%.

What about the residual activity (FRK (human)) of the same compound?
The residual activity was 89.9%.

And the residual activity (GSK3A (human))?
Its residual activity is 91.4%.

What about the residual activity (INSRR (human)) of the same compound?
Its residual activity is 104%.

What about the residual activity (LRRK2 (human)) of the same compound?
Its residual activity is 91.4%.

And the residual activity (LTK (human))?
The residual activity was 94.8%.

What about the residual activity (MAP2K1 (human)) of the same compound?
The residual activity was 96.4%.

And the residual activity (MAP2K2 (human))?
The residual activity was 85.8%.

What about the residual activity (MAP3K10 (human)) of the same compound?
Its residual activity is 91.4%.

And the residual activity (MAP4K2 (human))?
The residual activity was 61.8%.

And the residual activity (MAPK13 (human))?
Its residual activity is 109%.

What about the residual activity (MAPKAPK3 (human)) of the same compound?
Its residual activity is 100%.

What about the residual activity (MARK3 (human)) of the same compound?
The residual activity was 96.5%.

What about the residual activity (MYLK2 (human)) of the same compound?
The residual activity was 66.6%.

And the residual activity (NEK9 (human))?
Its residual activity is 99%.

What about the residual activity (PAK6 (human)) of the same compound?
Its residual activity is 87.5%.

And the residual activity (PASK (human))?
Its residual activity is 97.4%.

What about the residual activity (PHKG1 (human)) of the same compound?
The residual activity was 91.5%.

What about the residual activity (PIM2 (human)) of the same compound?
The residual activity was 104%.

And the residual activity (PRKACA (human))?
Its residual activity is 97.5%.

What about the residual activity (RPS6KA1 KD1 KD2 (human)) of the same compound?
The residual activity was 100%.

And the residual activity (RPS6KA3 KD1 KD2 (human))?
The residual activity was 109%.

And the residual activity (STK16 (human))?
The residual activity was 89.1%.

What about the residual activity (ULK1 (human)) of the same compound?
The residual activity was 124%.

And the residual activity (ULK2 (human))?
The residual activity was 96.4%.
